Reference: EP4700025A1, “AMIDE COMPOUND, PHARMACEUTICAL COMPOSITION COMPRISING SAME, AND USE THEREOF” (Suzhou Genhouse Bio Co., Ltd., priority 2023, dated 2024)
Read-outs that look alike come from different tables or passages of the source.

Tests used:
HCT-116-MTAP^-/- = test: CCK8 proliferation inhibition, HCT-116-MTAP^-/-; assay type: cell-based; details: Homo sapiens, 192 h; HCT-116-MTAP^-/- (MTAP-deficient); CCK8, 8 days after drug treatment
SDMA = SDMA Inhibition Assay in HCT-116 cells; assay type: cell-based; details: Homo sapiens, HCT-116, 96 hours
CYP450 1A2 = target: T1, CYP450 1A2 (Homo sapiens, UniProt P05177); test: Inhibition of human liver microsome CYP450 enzyme 1A2; assay type: in vitro ADME
T1 construct: from tissue; host or cells: human liver microsomes
T1 sequence (P05177 1-516): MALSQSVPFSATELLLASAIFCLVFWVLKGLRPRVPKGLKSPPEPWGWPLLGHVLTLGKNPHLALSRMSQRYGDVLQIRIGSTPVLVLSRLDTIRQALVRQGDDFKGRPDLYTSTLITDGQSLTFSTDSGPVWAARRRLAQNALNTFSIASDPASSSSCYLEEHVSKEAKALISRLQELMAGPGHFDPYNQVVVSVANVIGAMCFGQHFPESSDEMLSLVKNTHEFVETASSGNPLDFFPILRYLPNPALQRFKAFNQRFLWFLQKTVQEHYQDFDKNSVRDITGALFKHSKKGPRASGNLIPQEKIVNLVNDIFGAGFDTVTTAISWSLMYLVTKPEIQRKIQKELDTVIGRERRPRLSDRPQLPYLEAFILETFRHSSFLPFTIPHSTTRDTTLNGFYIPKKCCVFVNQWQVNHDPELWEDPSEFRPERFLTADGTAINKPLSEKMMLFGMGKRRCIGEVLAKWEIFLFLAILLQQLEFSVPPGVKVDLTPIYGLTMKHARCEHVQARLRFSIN
Description: (§1) 100 mM K-Buffer: 9.5 mL of stock solution A was mixed with 40.5 mL of stock solution B, the total volume was adjusted to 500 mL with ultrapure water, and the buffer was titrated to pH 7.4 with KOH or H3PO4. • Starting material A (1 M potassium dihydrogen phosphate): 136.5 g of potassium dihydrogen phosphate in 1 L of water; • Stock solution B ([…]): 174.2 g of potassium dihydrogen phosphate in 1 L of water.
(§2) The test substance powder was prepared into a stock solution at a certain concentration with DMSO or another organic solvent, which was then further diluted with a suitable organic solvent.
(§3) The liver microsomal in vitro incubation system for the CYP450 enzyme metabolism phenotype study was a biochemical reaction of the prepared liver microsomes supplemented with a redox coenzyme and an enzyme-specific selective inhibitor under simulated physiological temperature and physiological environment conditions.
(§4) The concentration of the parent drug or a metabolite thereof in the incubation solution was determined by LC-MS/MS. and the IC50 value was calculated.

CYP450 2C9 = target: T2, CYP450 2C9 (Homo sapiens, UniProt P11712); test: Inhibition of human liver microsome CYP450 enzyme 2C9; assay type: in vitro ADME
T2 construct: from tissue; host or cells: human liver microsomes
T2 sequence (P11712 whole entry): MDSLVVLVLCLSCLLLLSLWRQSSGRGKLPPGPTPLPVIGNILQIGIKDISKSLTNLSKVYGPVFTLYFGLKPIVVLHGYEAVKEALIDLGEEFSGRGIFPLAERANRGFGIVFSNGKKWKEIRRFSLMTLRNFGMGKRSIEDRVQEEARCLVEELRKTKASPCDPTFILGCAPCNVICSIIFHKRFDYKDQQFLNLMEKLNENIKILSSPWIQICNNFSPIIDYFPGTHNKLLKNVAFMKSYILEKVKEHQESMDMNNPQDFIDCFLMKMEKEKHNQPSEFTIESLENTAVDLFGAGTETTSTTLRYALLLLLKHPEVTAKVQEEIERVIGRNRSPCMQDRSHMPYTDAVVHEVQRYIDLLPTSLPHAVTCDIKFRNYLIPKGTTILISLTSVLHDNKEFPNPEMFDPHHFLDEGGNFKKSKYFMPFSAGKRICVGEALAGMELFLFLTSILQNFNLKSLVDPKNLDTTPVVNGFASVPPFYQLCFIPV
Description: as §1, §2, §3, §4

CYP450 2C19 = target: T3, CYP450 2C19 (Homo sapiens, UniProt P33261); test: Inhibition of human liver microsome CYP450 enzyme 2C19; assay type: in vitro ADME
T3 construct: from tissue; host or cells: human liver microsomes
T3 sequence (P33261 whole entry): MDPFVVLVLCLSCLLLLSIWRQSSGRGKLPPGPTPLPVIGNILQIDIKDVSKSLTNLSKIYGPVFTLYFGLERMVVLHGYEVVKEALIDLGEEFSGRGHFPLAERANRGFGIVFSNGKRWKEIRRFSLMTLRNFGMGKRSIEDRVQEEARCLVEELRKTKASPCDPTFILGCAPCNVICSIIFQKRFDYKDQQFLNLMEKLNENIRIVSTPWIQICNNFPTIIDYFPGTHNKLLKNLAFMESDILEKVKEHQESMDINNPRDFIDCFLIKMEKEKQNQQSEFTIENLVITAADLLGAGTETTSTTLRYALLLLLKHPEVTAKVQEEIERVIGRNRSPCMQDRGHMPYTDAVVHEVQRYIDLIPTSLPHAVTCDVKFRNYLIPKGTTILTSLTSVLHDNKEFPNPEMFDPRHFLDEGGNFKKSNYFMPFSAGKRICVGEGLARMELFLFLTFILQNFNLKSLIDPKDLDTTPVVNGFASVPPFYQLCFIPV
Description: as §1, §2, §3, §4

CYP450 2D6 = target: T4, CYP450 2D6 (Homo sapiens, UniProt P10635); test: Inhibition of human liver microsome CYP450 enzyme 2D6; assay type: in vitro ADME
T4 construct: from tissue; host or cells: human liver microsomes
T4 sequence (P10635 whole entry): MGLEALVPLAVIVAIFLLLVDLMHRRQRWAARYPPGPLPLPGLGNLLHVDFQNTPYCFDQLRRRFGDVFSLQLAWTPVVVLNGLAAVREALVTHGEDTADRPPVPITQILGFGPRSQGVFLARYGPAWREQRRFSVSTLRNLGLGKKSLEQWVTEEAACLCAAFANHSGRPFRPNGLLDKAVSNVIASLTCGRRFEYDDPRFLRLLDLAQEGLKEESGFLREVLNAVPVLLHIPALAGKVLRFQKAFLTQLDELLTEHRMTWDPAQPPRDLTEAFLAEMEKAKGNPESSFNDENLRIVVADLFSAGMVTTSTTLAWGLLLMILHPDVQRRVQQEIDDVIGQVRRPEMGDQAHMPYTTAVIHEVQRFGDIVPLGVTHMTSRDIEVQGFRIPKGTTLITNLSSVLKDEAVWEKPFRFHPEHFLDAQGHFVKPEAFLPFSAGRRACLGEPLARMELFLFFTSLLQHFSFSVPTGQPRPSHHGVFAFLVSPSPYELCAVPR
Description: as §1, §2, §3, §4

NCI-H838 cells = test: Pharmacodynamic study, NCI-H838 subcutaneous xenograft; assay type: in vivo, mouse
Description: Human non-small cell lung cancer NCI-H838 cells were cultured in monolayer in vitro using the McCoy 5A culture medium (HyClone) containing 10% fetal bovine serum (BI) and 1% penicillin and streptomycin (Beyotime) in an incubator at 37 °C with 5% CO2. The cells were digested with trypsin 2 to 3 times weekly for passaging. When the saturation degree of the cells was 80% to 90%, the cells were collected, counted, and inoculated. 5 × 10^6 (0.1 mL) NCI-H838 cells were subcutaneously inoculated on the right back of each mouse. On about day 29 after inoculation of the cells, the mean tumor volume reached 156 mm^3. The mice were randomly grouped for administration (the animals were divided into an administration group and a control group, with 6 animals in each group). The day of grouping was designated as d0, and intragastric administration was started on d1. The administration was performed once daily at an administration volume of 10 mL/kg. Vehicle control was administered to the control group. The tumor volume was measured 2 to 3 times weekly, and meanwhile, the mice were weighed and the data were recorded; daily observations were made to record the body surface signs of the mice. After the experiment was completed, the tumors were collected, weighed, and photographed for recording.
Calculation formula for tumor volume: Tumor volume (mm^3) = 1/2 × (a×b^2) [formula] (note: a represents long diameter and b represents short diameter) [formula]

Row | SMILES | EC50 (HCT-116-MTAP^-/-) | EC50 (SDMA) | IC50 (CYP450 1A2; human, microsomes, pH 7.4) | IC50 (CYP450 2C9; human, microsomes, pH 7.4) | IC50 (CYP450 2C19; human, microsomes, pH 7.4) | IC50 (CYP450 2D6; human, microsomes, pH 7.4) | Day 31 TGI (NCI-H838 cells; 10 mpk PO QD) | IC50 (CYP450 1A2; human liver microsomes, 1A2, read-out: IC50) | IC50 (CYP450 2C9; human liver microsomes, 2C9, read-out: IC50) | IC50 (CYP450 2C19; human liver microsomes, 2C19, read-out: IC50) | IC50 (CYP450 2D6; human liver microsomes, 2D6, read-out: IC50) | Day 31 TGI (NCI-H838 cells; 30 mpk PO QD) | Day 31 TGI (NCI-H838 cells; 100 mpk PO QD)
1 | Cn1ncc2c(N)nc3cc(F)c(C(=O)N4CCOC[C@@H]4c4ccc5c(c4)OC(F)(F)O5)cc3c21 [Example I-7] | 6.6 nM | 181 nM | > 10000 nM | > 10000 nM | > 10000 nM | > 10000 nM |  |  |  |  |  |  | 
2 | Cn1ncc2c(N)nc3cc(F)c(C(=O)N(Cc4ccc5c(c4)OC(F)(F)O5)C4CC4)cc3c21 [Example I-16] | 3.8 nM | 201 nM |  |  |  |  | 97% | > 10000 nM | > 10000 nM | > 10000 nM | > 10000 nM |  | 
3 | Cn1ncc2c(N)nc3cnc(C(=O)N4CCOC[C@@H]4c4ccc5c(c4)OC(F)(F)O5)cc3c21 [Example I-38] | 7.4 nM | 147 nM |  |  |  |  | 75% |  |  |  |  | 105% | 107%
